Structures can show the parent of a compound that is named as a salt. Blank lines part the entries; values can stand above or below the compound they belong to.
What was measured:
[1] = Hygroscopicity of crystalline form ω under standard storage conditions; format: physicochemical
[2] = Physical and chemical stability of crystalline form ω under standard conditions; format: physicochemical; conditions: standard pressure, temperature and humidity conditions; FIGS. 6 and 7
[3] = XRPD comparison of crystalline form ω fresh and after storage; format: physicochemical; conditions: in the presence of moisture; FIGS. 6 and 7: 4° C. 24 hours, room temperature 24 hours, 25° C. and 60% RH 7 days
Protocol: FIG. 6: Comparison of XRPD spectra of a sample of vortioxetine hydrobromide in crystalline form ω, as defined herein, freshly prepared (top line), after the same sample of vortioxetine hydrobromide in crystalline form ω has been kept at low temperature (4° C.) for 24 hours (middle line), and after the sample has been kept at room temperature for 24 hours (bottom line).
FIG. 7: Comparison of XRPD spectra of a sample of vortioxetine hydrobromide in crystalline form ω, as defined herein, freshly prepared (bottom line), and the same sample analysed after 7 days, kept at a temperature of 25° C. and 60% relative humidity (RH) (top line).
Crystalline form ω of vortioxetine hydrobromide was characterised by X-ray powder diffraction (XRPD). The X-ray powder diffraction (XRPD) spectra shown in FIGS. 3, 6 and 7 were collected with a PANalytical X'Pert PRO automatic powder diffractometer under the following operating conditions: CuKα radiation (λ=1.54 Å), scanning with a 2θ angle range of 3-40° with a step size of 0.017° for 12.7 sec.

[4] = as said in WO 2014/044721; cited from earlier work
[5] = greater relative humidity than the standard conditions; as described in WO 2007/144005, acknowledged by WO2014/044721; cited from earlier work

hygroscopicity [1]: not hygroscopic | retention of crystalline form (XRPD) [3]: keeps its crystalline form
SMILES: Cc1ccc(Sc2ccccc2N2CCNCC2)c(C)c1 [crystalline form ω, hydrobromide salt of 1-[2-(2,4-dimethylphenylsulphanyl)phenyl]piperazine]
physical and chemical stability [2]: stable from both the physical and the chemical standpoint

SMILES: Cc1ccc(Sc2ccccc2N2CCNCC2)c(C)c1 [delta crystalline form, vortioxetine hydrobromide]
solubility in water [4]: high solubility in water

SMILES: Cc1ccc(Sc2ccccc2N2CCNCC2)c(C)c1 [gamma, vortioxetine hydrobromide]
hygroscopicity (tendency to absorb water) [5]: significant hygroscopicity
